In US12319708B2, “Agonists of peroxisome proliferator-activated receptor alpha (PPARα) and methods of use” (The Board of Regents of the University of Oklahoma, priority 2018, dated 2025):
Read-outs that look alike come from different tables or passages of the source.

Molecular target: T1, hPPARα (Homo sapiens, UniProt Q07869)
T1 sequence (Q07869 1-468): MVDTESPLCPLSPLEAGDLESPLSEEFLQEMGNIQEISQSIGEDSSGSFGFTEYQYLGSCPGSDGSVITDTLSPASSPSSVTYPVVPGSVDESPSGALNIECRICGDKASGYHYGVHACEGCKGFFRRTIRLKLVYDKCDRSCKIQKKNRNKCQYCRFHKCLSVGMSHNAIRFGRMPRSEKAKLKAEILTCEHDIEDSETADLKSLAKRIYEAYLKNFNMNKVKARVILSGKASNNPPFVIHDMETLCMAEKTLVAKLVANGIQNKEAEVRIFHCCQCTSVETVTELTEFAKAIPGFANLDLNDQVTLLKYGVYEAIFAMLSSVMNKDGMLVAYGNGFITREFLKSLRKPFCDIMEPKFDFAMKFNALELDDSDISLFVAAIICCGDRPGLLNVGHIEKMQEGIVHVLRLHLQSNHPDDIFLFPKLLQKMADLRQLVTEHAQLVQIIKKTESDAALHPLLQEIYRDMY
Assay: PPARα luciferase cell reporter assay (Indigo Biosciences)
Assay type: cell-based
Settings: for ratio (5/50): ratio of relative light unit (RLU) signal at 5 and 50 μM: 5 and 50 μM compound concentrations; for fold-signal: ratio of maximal signal strength to that obtained with GW590735: relative to GW590735
Text: With the focused subset of analogs in-hand, our efforts shifted to the evaluation of these derivatives for PPARα agonism. Preliminary evaluation utilized a commercially available PPARα luciferase cell reporter assay (Indigo Biosciences). The cell-line employed is engineered to constitutively express high-levels of hPPARα. Upon interaction with an agonist, hPPARα translocates to the nucleus, binds to the PPRE, and upregulates gene transcription, including the inserted luciferase gene. Luciferase activity is detected indirectly through quantification of oxyluciferin production.

[1] = structure IIa compounds (Table 6)
[2] = Table 6, cellular luciferase activity, read-out: α EC50
[3] = structure IIb compounds (Table 8)
[4] = mean ± SEM of at least two separate experiments in triplicate (Table 9), read-out: EC50 hPPARα

Compound | Fold (5 μM): fold increase in luciferase compared to DMSO negative control [1] | Fold (50 μM): fold increase in luciferase compared to DMSO negative control [1] | also measured
O=C(O)c1cccc(NCc2ccc(OCc3ccc(I)cc3)cc2)c1 [Compound 189] | 39 fold | 37 fold | EC50 [2]: 1200 nM
O=C(O)c1cccc(NCc2ccc(OCc3ccccc3)cc2)c1 [Compound 117] | 18 fold | 35 fold | 
CC(C)(Oc1cccc(NCc2ccc(OCc3ccc(F)cc3)cc2)c1)C(=O)O [Compound 127] | 11 fold | 150 fold | 
CC(C)(Oc1cccc(NCc2ccc(OCc3cc(F)cc(F)c3)cc2)c1)C(=O)O [Compound 121] | 16 fold | 42 fold | 
CN(Cc1ccc(OCc2ccc(F)cc2)cc1)c1cccc(OC(C)(C)C(=O)O)c1 [Compound 153] | 94 fold | 120 fold | EC50 [2]: 1700 nM
O=C(O)c1cccc(NCc2ccc(OCc3cccc(F)c3)cc2)c1 [Compound 193] | 73 fold | 56 fold | EC50 [2]: 1100 nM
CN(Cc1ccc(OCc2ccc(F)cc2)cc1)c1cccc(C(=O)O)c1 [Compound 151] | 102 fold | 109 fold | EC50 [2]: 1000 nM
O=C(O)c1cccc(NCc2ccc(OCc3ccc(C(F)(F)F)cc3)cc2)c1 [Compound 126] | 81 fold | 100 fold | EC50 [2]: 800 nM
CS(=O)(=O)Nc1cccc(NCc2ccc(OCc3ccc(F)cc3)cc2)c1 [Compound 145] | 3 fold | 5 fold | 
O=C(O)c1cccc(NCc2ccc(OCc3cc(F)cc(F)c3)cc2)c1 [Compound 119] | 9 fold | 35 fold | 
O=C(NO)c1cccc(NCc2ccc(OCc3ccc(F)cc3)cc2)c1 [Compound 146] | 34 fold | 53 fold | 
COc1ccc(COc2ccc(CNc3cccc(OCC(=O)O)c3)cc2)cc1 [Compound 130] | 2 fold | 43 fold | EC50 [2]: 29200 nM
O=C(O)c1cccc(NCc2ccc(OCc3ccc(F)cc3)c(F)c2)c1 [26′] |  |  | ratio (5/50): ratio of relative light unit (RLU) signal at 5 and 50 μM: 0.7; fold-signal: ratio of maximal signal strength to that obtained with GW590735: 1.7
NS(=O)(=O)c1cccc(NCc2ccc(OCc3ccc(F)cc3)cc2)c1 [Compound 147] | 3 fold | 3 fold | 
COc1ccc(COc2ccc(CNc3ccc(C(=O)O)cc3)cc2)cc1 [Compound 162] |  |  | Fold (5 μM): fold increase in luciferase compared to DMSO negative control [3]: 4 fold; Fold (50 μM): fold increase in luciferase compared to DMSO negative control [3]: 29 fold
O=C(O)c1cc(Cl)cc(NCc2ccc(OCc3ccc(F)cc3)cc2)c1 [Compound 168] | 18 fold | 93 fold | 
O=C(O)COc1cccc(NCc2ccc(OCc3ccc(C(F)(F)F)cc3)cc2)c1 [Compound 129] | 2 fold | 112 fold | 
O=C(O)c1cccc(NCc2ccc(OCc3ccc(Br)cc3)cc2)c1 [Compound 192] | 53 fold | 58 fold | EC50 [2]: 800 nM
O=C(O)c1cccc(NCc2ccc(OCc3ccc(Cl)cc3)cc2)c1 [Compound 122] | 17 fold | 36 fold | 
O=C(O)c1cc(F)cc(NCc2ccc(OCc3ccc(F)cc3)cc2)c1 [Compound 185] | 61 fold | 66 fold | EC50 [2]: 700 nM
O=C(O)c1cccc(NCc2ccc(OCc3ccccc3F)cc2)c1 [Compound 195] | 34 fold | 45 fold | 

Compound | Fold (5 μM): fold increase in luciferase compared to DMSO negative control [1] | Fold (50 μM): fold increase in luciferase compared to DMSO negative control [1] | also measured
COc1ccc(COc2ccc(CNc3cccc(C(=O)NO)c3)cc2)cc1 [Compound 134] | 3 fold | 9 fold | 
CC(C)(Sc1cccc(NCc2ccc(OCc3ccc(F)cc3)cc2)c1)C(=O)O [Compound 188] | 10 fold | 45 fold | 
CC(C)(Oc1cccc(NCc2ccc(OCc3ccccc3)cc2)c1)C(=O)O [Compound 116] | 1 fold | 46 fold | 
O=C(O)c1ccc(NCc2ccc(OCc3ccc(C(F)(F)F)cc3)cc2)cc1 [Compound 155] |  |  | Fold (5 μM): fold increase in luciferase compared to DMSO negative control [3]: 4 fold; Fold (50 μM): fold increase in luciferase compared to DMSO negative control [3]: 8 fold
O=C(O)c1cccc(NCc2ccc(OCc3ccc([N+](=O)[O-])cc3)cc2)c1 [Compound 120] | 16 fold | 35 fold | 
OB(O)c1cccc(NCc2ccc(OCc3ccc(F)cc3)cc2)c1 [Compound 154] | 3 fold | 2 fold | 
O=C(O)c1cc(F)cc(NCc2ccc(OCc3ccc(F)cc3)c(Cl)c2)c1 [32′] |  |  | ratio (5/50): ratio of relative light unit (RLU) signal at 5 and 50 μM: 1.1; EC50 [4]: 52 ± 11 nM; fold-signal: ratio of maximal signal strength to that obtained with GW590735: 1.8
O=C(O)c1cccc(NCc2ccc(OCc3ccc(Cl)cc3Cl)cc2)c1 [Compound 118] | 1 fold | 37 fold | 
O=C(O)c1cc(Br)cc(NCc2ccc(OCc3ccc(F)cc3)cc2)c1 [Compound 184] | 59 fold | 69 fold | EC50 [2]: 900 nM
COc1ccc(COc2ccc(CNc3cccc(B(O)O)c3)cc2)cc1 [Compound 110] | 1 fold | 1 fold | 
CC(C)(Oc1cccc(NCc2ccc(OCc3ccc(Cl)cc3)cc2)c1)C(=O)O [Compound 123] | 2 fold | 55 fold | 
Cc1cc(CN(C)c2cccc(C(=O)O)c2)ccc1OCc1ccc(F)cc1 [30′] |  |  | ratio (5/50): ratio of relative light unit (RLU) signal at 5 and 50 μM: 0.8; EC50 [4]: 67 ± 10 nM; fold-signal: ratio of maximal signal strength to that obtained with GW590735: 2.1
Cc1cc(CNc2cccc(C(=O)O)c2)ccc1OCc1cc(F)cc(F)c1 [25′] |  |  | ratio (5/50): ratio of relative light unit (RLU) signal at 5 and 50 μM: 1.1; fold-signal: ratio of maximal signal strength to that obtained with GW590735: 1.6
O=C(O)c1cccc(NCc2ccc(OCc3ccc(F)cc3F)cc2)c1 [Compound 194] | 51 fold | 49 fold | EC50: 400 nM
CC(C)(Oc1cccc(NCc2ccc(OCc3ccc(C(F)(F)F)cc3)cc2)c1)C(=O)O [Compound 128] | 19 fold | 106 fold | 
O=C(O)c1cccc(NCc2ccc(OCc3ccc(F)cc3)c(Cl)c2)c1 [27′] |  |  | ratio (5/50): ratio of relative light unit (RLU) signal at 5 and 50 μM: 1.1; fold-signal: ratio of maximal signal strength to that obtained with GW590735: 1.5
Fc1ccc(COc2ccc(CNc3cccc(-c4nnn[nH]4)c3)cc2)cc1 [Compound 148] | 73 fold | 85 fold | EC50 [2]: 5700 nM
Cc1cc(CNc2cccc(C(=O)O)c2)ccc1OCc1cc(F)cc(F)c1 [Compound 198] | 88 fold | 84 fold | 
N#Cc1ccc(COc2ccc(CNc3cccc(C(=O)O)c3)cc2)cc1 [Compound 191] | 42 fold | 61 fold | 
O=C(O)c1ccc(NCc2ccc(OCc3ccc(F)cc3)cc2)cc1 [Compound 183] |  |  | Fold (5 μM): fold increase in luciferase compared to DMSO negative control [3]: 4 fold; Fold (50 μM): fold increase in luciferase compared to DMSO negative control [3]: 14 fold
Cc1cc(CN(C)c2cccc(C(=O)O)c2)ccc1OCc1ccc(F)cc1 [Compound 199] | 102 fold | 131 fold | 
